{"source": "patent US20050197350A1", "about": "“Novel quinoline, tetrahydroquinazoline, and pyrimidine derivatives and methods of treatment related to the use thereof” (TAISHO PHARMACEUTICAL CO., LTD., priority 2003, published 2005)", "data": [{"test_system": "MCH receptors", "assay": "MCH receptor activity class (method not given)", "conditions": "activity class 1-3: percent of control at 10^-7 M or IC50", "values": [{"compound": "Cc1cc(NC(=O)N[C@H]2CC[C@@H](Nc3nc4c(c(N(C)C)n3)CCCC4)CC2)c(C(F)(F)F)o1", "note": "[compound 1692]", "class": "3 (Class 3 The value of percent of control at 10^−7 M was more than 60% or the value of IC50 was more than 200 nM.)"}, {"compound": "CN(C)c1nc(N[C@H]2CC[C@@H](NC(=O)Nc3ccccc3Br)CC2)nc2c1CCCC2", "note": "[compound 1693]", "class": "3 (Class 3 The value of percent of control at 10^−7 M was more than 60% or the value of IC50 was more than 200 nM.)"}, {"compound": "CN(C)c1nc(N[C@H]2CC[C@@H](NC(=O)Nc3ccccc3-c3ccccc3)CC2)nc2c1CCCC2", "note": "[compound 1694]", "class": "3 (Class 3 The value of percent of control at 10^−7 M was more than 60% or the value of IC50 was more than 200 nM.)"}, {"compound": "CCCCNC(=O)N[C@H]1CC[C@@H](Nc2nc3c(c(N(C)C)n2)CCCC3)CC1", "note": "[compound 1695]", "class": "3 (Class 3 The value of percent of control at 10^−7 M was more than 60% or the value of IC50 was more than 200 nM.)"}, {"compound": "Cc1cccc(NC(=O)N[C@H]2CC[C@@H](Nc3nc4c(c(N(C)C)n3)CCCC4)CC2)c1C", "note": "[compound 1696]", "class": "3 (Class 3 The value of percent of control at 10^−7 M was more than 60% or the value of IC50 was more than 200 nM.)"}, {"compound": "CCOC(=O)c1cccc(NC(=O)N[C@H]2CC[C@@H](Nc3nc4c(c(N(C)C)n3)CCCC4)CC2)c1", "note": "[compound 1697]", "class": "3 (Class 3 The value of percent of control at 10^−7 M was more than 60% or the value of IC50 was more than 200 nM.)"}, {"compound": "C=C(C)c1cccc(C(C)(C)NC(=O)N[C@H]2CC[C@@H](Nc3nc4c(c(N(C)C)n3)CCCC4)CC2)c1", "note": "[compound 1698]", "class": "3 (Class 3 The value of percent of control at 10^−7 M was more than 60% or the value of IC50 was more than 200 nM.)"}, {"compound": "CN(C)c1nc(N[C@H]2CC[C@@H](NC(=O)Nc3cccc4ccccc34)CC2)nc2c1CCCC2", "note": "[compound 1700]", "class": "2 (Class 2: The value of percent of control at 10^−7 M was from 40% to 60% or the value of IC′50 was from 50 nM to 200 nM.)"}, {"compound": "CN(C)c1nc(N[C@H]2CC[C@@H](NC(=O)NC3C[C@H]3c3ccccc3)CC2)nc2c1CCCC2", "note": "(stereo partly drawn) [compound 1701]", "class": "3 (Class 3 The value of percent of control at 10^−7 M was more than 60% or the value of IC50 was more than 200 nM.)"}, {"compound": "CN(C)c1nc(N[C@H]2CC[C@@H](NC(=O)Nc3ccc(Oc4ccccc4)cc3)CC2)nc2c1CCCC2", "note": "[compound 1702]", "class": "3 (Class 3 The value of percent of control at 10^−7 M was more than 60% or the value of IC50 was more than 200 nM.)"}, {"compound": "CCCCCNC(=O)N[C@H]1CC[C@@H](Nc2nc3c(c(N(C)C)n2)CCCC3)CC1", "note": "[compound 1703]", "class": "3 (Class 3 The value of percent of control at 10^−7 M was more than 60% or the value of IC50 was more than 200 nM.)"}, {"compound": "CC(NC(=O)NC1CCC(Nc2nc3c(c(N(C)C)n2)CCCC3)CC1)c1ccccc1", "note": "(stereo not drawn) [compound 1707]", "class": "3 (Class 3 The value of percent of control at 10^−7 M was more than 60% or the value of IC50 was more than 200 nM.)"}, {"compound": "CN(C)c1nc(N[C@H]2CC[C@@H](NC(=O)Nc3c(Cl)c(Cl)cc(Cl)c3Cl)CC2)nc2c1CCCC2", "note": "[compound 1708]", "class": "3 (Class 3 The value of percent of control at 10^−7 M was more than 60% or the value of IC50 was more than 200 nM.)"}, {"compound": "CN(C)c1nc(N[C@H]2CC[C@@H](NC(=O)Nc3ccc(Br)cc3Br)CC2)nc2c1CCCC2", "note": "[compound 1709]", "class": "2 (Class 2: The value of percent of control at 10^−7 M was from 40% to 60% or the value of IC′50 was from 50 nM to 200 nM.)"}]}, {"test_system": "MCH receptors", "assay": "MCH receptor activity class (method not given)", "conditions": "class by percent of control at 10^-7 M or IC50", "values": [{"compound": "CN(C)c1nc(N[C@H]2CC[C@@H](NC(=O)NCc3ccc(Cl)cc3Cl)CC2)nc2c1CCCC2", "note": "[compound 1710]", "class": "2 (Class 2: The value of percent of control at 10^−7 M was from 40% to 60% or the value of IC′50 was from 50 nM to 200 nM.)"}, {"compound": "COc1ccc(NC(=O)N[C@H]2CC[C@@H](Nc3nc4c(c(N(C)C)n3)CCCC4)CC2)c(OC)c1", "note": "[compound 1711, N-(2,4-dimethoxyphenyl)-N′-(cis-4-{[4-(dimethylamino)-5,6,7,8-tetrahydroquinazolin-2-yl]amino}cyclohexyl)urea]", "class": "2 (Class 2: The value of percent of control at 10^−7 M was from 40% to 60% or the value of IC′50 was from 50 nM to 200 nM.)"}, {"compound": "CCOc1ccccc1NC(=O)N[C@H]1CC[C@@H](Nc2nc3c(c(N(C)C)n2)CCCC3)CC1", "note": "[compound 1712]", "class": "2 (Class 2: The value of percent of control at 10^−7 M was from 40% to 60% or the value of IC′50 was from 50 nM to 200 nM.)"}, {"compound": "CN(C)c1nc(N[C@H]2CC[C@@H](NC(=O)NCc3ccccc3F)CC2)nc2c1CCCC2", "note": "[compound 1713]", "class": "2 (Class 2: The value of percent of control at 10^−7 M was from 40% to 60% or the value of IC′50 was from 50 nM to 200 nM.)"}, {"compound": "Cc1cc([N+](=O)[O-])ccc1NC(=O)N[C@H]1CC[C@@H](Nc2nc3c(c(N(C)C)n2)CCCC3)CC1", "note": "[compound 1714]", "class": "3 (Class 3 The value of percent of control at 10^−7 M was more than 60% or the value of IC50 was more than 200 nM.)"}, {"compound": "Cc1ccc([N+](=O)[O-])cc1NC(=O)N[C@H]1CC[C@@H](Nc2nc3c(c(N(C)C)n2)CCCC3)CC1", "note": "[compound 1715]", "class": "3 (Class 3 The value of percent of control at 10^−7 M was more than 60% or the value of IC50 was more than 200 nM.)"}, {"compound": "Cc1ccccc1CNC(=O)N[C@H]1CC[C@@H](Nc2nc3c(c(N(C)C)n2)CCCC3)CC1", "note": "[compound 1716]", "class": "3 (Class 3 The value of percent of control at 10^−7 M was more than 60% or the value of IC50 was more than 200 nM.)"}, {"compound": "CN(C)c1nc(N[C@H]2CC[C@@H](NC(=O)Nc3ccccc3[N+](=O)[O-])CC2)nc2c1CCCC2", "note": "[compound 1717]", "class": "3 (Class 3 The value of percent of control at 10^−7 M was more than 60% or the value of IC50 was more than 200 nM.)"}, {"compound": "CN(C)c1nc(N[C@H]2CC[C@@H](NC(=O)Nc3ccc4c(c3)OCO4)CC2)nc2c1CCCC2", "note": "[compound 1718]", "class": "3 (Class 3 The value of percent of control at 10^−7 M was more than 60% or the value of IC50 was more than 200 nM.)"}, {"compound": "COc1cc(NC(=O)N[C@H]2CC[C@@H](Nc3nc4c(c(N(C)C)n3)CCCC4)CC2)cc(OC)c1OC", "note": "[compound 1719]", "class": "1 (Class 1: The value of percent of control at 10^−7 M was less than 40% or the value of IC50 was less than 50 nM.)"}, {"compound": "COc1ccc(NC(=O)N[C@H]2CC[C@@H](Nc3nc4c(c(N(C)C)n3)CCCC4)CC2)cc1OC", "note": "[compound 1720, N-(3,4-dimethoxyphenyl)-N′-(cis-4-{[4-(dimethylamino)-5,6,7,8-tetrahydroquinazolin-2-yl]amino}cyclohexyl)urea]", "class": "2 (Class 2: The value of percent of control at 10^−7 M was from 40% to 60% or the value of IC′50 was from 50 nM to 200 nM.)"}, {"compound": "COc1ccc(NC(=O)N[C@H]2CC[C@@H](Nc3nc4c(c(N(C)C)n3)CCCC4)CC2)cc1Cl", "note": "[compound 1721]", "class": "3 (Class 3 The value of percent of control at 10^−7 M was more than 60% or the value of IC50 was more than 200 nM.)"}, {"compound": "CN(C)c1nc(N[C@H]2CC[C@@H](NC(=O)Nc3ccc(Br)cc3C(F)(F)F)CC2)nc2c1CCCC2", "note": "[compound 1722]", "class": "3 (Class 3 The value of percent of control at 10^−7 M was more than 60% or the value of IC50 was more than 200 nM.)"}, {"compound": "CN(C)c1nc(N[C@H]2CC[C@@H](NC(=O)NCc3ccc(Br)cc3)CC2)nc2c1CCCC2", "note": "[compound 1723]", "class": "3 (Class 3 The value of percent of control at 10^−7 M was more than 60% or the value of IC50 was more than 200 nM.)"}, {"compound": "Cc1cc(Cl)ccc1NC(=O)N[C@H]1CC[C@@H](Nc2nc3c(c(N(C)C)n2)CCCC3)CC1", "note": "[compound 1724, N-(4-chloro-2-methylphenyl)-N′-(cis-4-{[4-(dimethylamino)-5,6,7,8-tetrahydroquinazolin-2-yl]amino}cyclohexyl)urea]", "class": "2 (Class 2: The value of percent of control at 10^−7 M was from 40% to 60% or the value of IC′50 was from 50 nM to 200 nM.)"}, {"compound": "CN(C)c1nc(N[C@H]2CC[C@@H](NC(=O)NCc3ccc(F)cc3)CC2)nc2c1CCCC2", "note": "[compound 1725]", "class": "2 (Class 2: The value of percent of control at 10^−7 M was from 40% to 60% or the value of IC′50 was from 50 nM to 200 nM.)"}, {"compound": "COc1ccc(NC(=O)N[C@H]2CC[C@@H](Nc3nc4c(c(N(C)C)n3)CCCC4)CC2)c(C)c1", "note": "[compound 1726]", "class": "2 (Class 2: The value of percent of control at 10^−7 M was from 40% to 60% or the value of IC′50 was from 50 nM to 200 nM.)"}, {"compound": "COc1cc(OC)c(NC(=O)N[C@H]2CC[C@@H](Nc3nc4c(c(N(C)C)n3)CCCC4)CC2)cc1Cl", "note": "[compound 1727]", "class": "1 (Class 1: The value of percent of control at 10^−7 M was less than 40% or the value of IC50 was less than 50 nM.)"}, {"compound": "Cc1cc(Br)ccc1NC(=O)N[C@H]1CC[C@@H](Nc2nc3c(c(N(C)C)n2)CCCC3)CC1", "note": "[compound 1729, N-(4-bromo-2-methylphenyl)-N′-(cis-4-{[4-(dimethylamino)-5,6,7,8-tetrahydroquinazolin-2-yl]amino}cyclohexyl)urea]", "class": "2 (Class 2: The value of percent of control at 10^−7 M was from 40% to 60% or the value of IC′50 was from 50 nM to 200 nM.)"}, {"compound": "CN(C)c1nc(N[C@H]2CC[C@@H](NC(=O)Nc3ccc4c(c3)OCCO4)CC2)nc2c1CCCC2", "note": "[compound 1731]", "class": "3 (Class 3 The value of percent of control at 10^−7 M was more than 60% or the value of IC50 was more than 200 nM.)"}, {"compound": "CC(C)c1cc(Br)c(NC(=O)N[C@H]2CC[C@@H](Nc3nc4c(c(N(C)C)n3)CCCC4)CC2)c(Br)c1", "note": "[compound 1732]", "class": "3 (Class 3 The value of percent of control at 10^−7 M was more than 60% or the value of IC50 was more than 200 nM.)"}, {"compound": "COc1ccc(NC(=O)N[C@H]2CC[C@@H](Nc3nc4c(c(N(C)C)n3)CCCC4)CC2)cc1OC1CCCC1", "note": "[compound 1733]", "class": "3 (Class 3 The value of percent of control at 10^−7 M was more than 60% or the value of IC50 was more than 200 nM.)"}, {"compound": "CN(C)c1nc(N[C@H]2CC[C@@H](NC(=O)Nc3ccc4c(c3)OCCCO4)CC2)nc2c1CCCC2", "note": "[compound 1734]", "class": "3 (Class 3 The value of percent of control at 10^−7 M was more than 60% or the value of IC50 was more than 200 nM.)"}, {"compound": "CCCCc1ccc(NC(=O)N[C@H]2CC[C@@H](Nc3nc4c(c(N(C)C)n3)CCCC4)CC2)c(C)c1", "note": "[compound 1735]", "class": "3 (Class 3 The value of percent of control at 10^−7 M was more than 60% or the value of IC50 was more than 200 nM.)"}, {"compound": "Cc1onc(-c2ccccc2)c1NC(=O)N[C@H]1CC[C@@H](Nc2nc3c(c(N(C)C)n2)CCCC3)CC1", "note": "[compound 1736]", "class": "1 (Class 1: The value of percent of control at 10^−7 M was less than 40% or the value of IC50 was less than 50 nM.)"}]}]}
